Measured values taken from the NIST ThermoML archive (doi:10.1021/acs.jced.7b00106).

Conditions: Hot wire method

FC(F)(F)/C=C/Cl [(E)-1-chloro-3,3,3-trifluoroprop-1-ene]
Conditions | thermal conductivity [W/m/K]
334.63 K, 179 kPa, Gas | 0.01343
334.73 K, 328 kPa, Gas | 0.01333
334.82 K, 112 kPa, Gas | 0.01357
334.91 K, 97 kPa, Gas | 0.01369
334.92 K, 253 kPa, Gas | 0.0134
335.16 K, 178 kPa, Gas | 0.01354
335.37 K, 112 kPa, Gas | 0.01364
335.44 K, 97 kPa, Gas | 0.01368
335.71 K, 176 kPa, Gas | 0.01352
336 K, 98 kPa, Gas | 0.01372
336.29 K, 176 kPa, Gas | 0.01354
341.04 K, 7818 kPa, Liquid | 0.07607
341.05 K, 502 kPa, Liquid | 0.07132
341.06 K, 4000 kPa, Liquid | 0.07359
341.11 K, 4008 kPa, Liquid | 0.07339
341.11 K, 7812 kPa, Liquid | 0.07571
341.12 K, 503 kPa, Liquid | 0.07103
341.12 K, 34293 kPa, Liquid | 0.08893
341.19 K, 34283 kPa, Liquid | 0.08864
341.28 K, 19052 kPa, Liquid | 0.08179
341.29 K, 26074 kPa, Liquid | 0.08503
341.35 K, 19044 kPa, Liquid | 0.08181
341.36 K, 12813 kPa, Liquid | 0.07865
341.37 K, 26069 kPa, Liquid | 0.08479
341.4 K, 7815 kPa, Liquid | 0.07567
341.42 K, 3996 kPa, Liquid | 0.0734
341.44 K, 510 kPa, Liquid | 0.07095
341.44 K, 12800 kPa, Liquid | 0.07849
341.47 K, 114 kPa, Gas | 0.01391
341.48 K, 7806 kPa, Liquid | 0.07567
341.5 K, 113 kPa, Gas | 0.01391
341.5 K, 182 kPa, Gas | 0.01442
341.5 K, 4008 kPa, Liquid | 0.07332
341.53 K, 498 kPa, Liquid | 0.07081
341.53 K, 53967 kPa, Liquid | 0.09634
341.54 K, 65483 kPa, Liquid | 0.1004
341.56 K, 117 kPa, Gas | 0.01424
341.57 K, 34287 kPa, Liquid | 0.08857
341.61 K, 65470 kPa, Liquid | 0.1001
341.62 K, 53976 kPa, Liquid | 0.09608
341.73 K, 464 kPa, Gas | 0.01417
341.74 K, 113 kPa, Gas | 0.01377
341.74 K, 256 kPa, Gas | 0.01435
341.76 K, 26067 kPa, Liquid | 0.08459
341.77 K, 19040 kPa, Liquid | 0.08164
341.78 K, 181 kPa, Gas | 0.01434
341.79 K, 114 kPa, Gas | 0.0139
341.8 K, 177 kPa, Gas | 0.01425
341.82 K, 7816 kPa, Liquid | 0.0756
341.84 K, 117 kPa, Gas | 0.01379
341.84 K, 465 kPa, Gas | 0.01387
341.84 K, 4002 kPa, Liquid | 0.07296
341.87 K, 26056 kPa, Liquid | 0.08482
341.88 K, 116 kPa, Gas | 0.01443
341.88 K, 490 kPa, Liquid | 0.07091
341.88 K, 12799 kPa, Liquid | 0.07857
341.88 K, 19048 kPa, Liquid | 0.08151
341.91 K, 380 kPa, Gas | 0.01419
341.92 K, 7805 kPa, Liquid | 0.07534
341.96 K, 4010 kPa, Liquid | 0.07316
341.98 K, 253 kPa, Gas | 0.01421
341.99 K, 264 kPa, Gas | 0.01423
341.99 K, 497 kPa, Liquid | 0.07068
342 K, 113 kPa, Gas | 0.01367
342.01 K, 464 kPa, Gas | 0.0141
342.01 K, 65484 kPa, Liquid | 0.1003
342.02 K, 53960 kPa, Liquid | 0.09643
342.05 K, 176 kPa, Gas | 0.01407
342.09 K, 117 kPa, Gas | 0.01369
342.1 K, 180 kPa, Gas | 0.01435
342.12 K, 465 kPa, Gas | 0.01384
342.12 K, 34281 kPa, Liquid | 0.08848
342.12 K, 65469 kPa, Liquid | 0.09982
342.13 K, 113 kPa, Gas | 0.01416
342.15 K, 367 kPa, Gas | 0.01454
342.2 K, 116 kPa, Gas | 0.01425
342.2 K, 377 kPa, Gas | 0.01421
342.21 K, 43755 kPa, Liquid | 0.09113
342.24 K, 251 kPa, Gas | 0.01415
342.24 K, 34289 kPa, Liquid | 0.08779
342.26 K, 113 kPa, Gas | 0.01361
342.29 K, 7805 kPa, Liquid | 0.07547
342.3 K, 262 kPa, Gas | 0.01427
342.32 K, 4001 kPa, Liquid | 0.07309
342.32 K, 26065 kPa, Liquid | 0.08477
342.33 K, 176 kPa, Gas | 0.01391
342.34 K, 464 kPa, Gas | 0.0141
342.34 K, 19039 kPa, Liquid | 0.08156
342.35 K, 118 kPa, Gas | 0.01366
342.37 K, 497 kPa, Liquid | 0.07069
342.4 K, 364 kPa, Gas | 0.01446
342.43 K, 179 kPa, Gas | 0.01433
342.43 K, 7788 kPa, Liquid | 0.07522
342.45 K, 465 kPa, Gas | 0.01403
342.47 K, 113 kPa, Gas | 0.01424
342.47 K, 12801 kPa, Liquid | 0.07827
342.48 K, 4008 kPa, Liquid | 0.07289
342.49 K, 19031 kPa, Liquid | 0.08119
342.51 K, 249 kPa, Gas | 0.01404
342.52 K, 491 kPa, Liquid | 0.07043
342.54 K, 114 kPa, Gas | 0.0136
342.55 K, 117 kPa, Gas | 0.01427
342.55 K, 375 kPa, Gas | 0.01415
342.57 K, 65460 kPa, Liquid | 0.1005
342.59 K, 175 kPa, Gas | 0.01391
342.6 K, 53948 kPa, Liquid | 0.09634
342.61 K, 12792 kPa, Liquid | 0.07793
342.64 K, 119 kPa, Gas | 0.01361
342.66 K, 260 kPa, Gas | 0.01427
342.67 K, 362 kPa, Gas | 0.01441
342.68 K, 43762 kPa, Liquid | 0.09267
342.7 K, 464 kPa, Gas | 0.01406
342.72 K, 65463 kPa, Liquid | 0.09997
342.73 K, 34274 kPa, Liquid | 0.08854
342.75 K, 53929 kPa, Liquid | 0.09616
342.8 K, 178 kPa, Gas | 0.01445
342.8 K, 247 kPa, Gas | 0.01402
342.8 K, 465 kPa, Gas | 0.01412
342.8 K, 7784 kPa, Liquid | 0.07528
342.84 K, 43753 kPa, Liquid | 0.09232
342.85 K, 113 kPa, Gas | 0.01425
342.85 K, 114 kPa, Gas | 0.01353
342.86 K, 4005 kPa, Liquid | 0.07287
342.89 K, 173 kPa, Gas | 0.01384
342.9 K, 34279 kPa, Liquid | 0.08837
342.91 K, 372 kPa, Gas | 0.01419
342.92 K, 488 kPa, Liquid | 0.07046
342.93 K, 359 kPa, Gas | 0.01446
342.94 K, 116 kPa, Gas | 0.01437
342.95 K, 121 kPa, Gas | 0.01352
343.03 K, 258 kPa, Gas | 0.01427
343.07 K, 464 kPa, Gas | 0.01408
343.08 K, 246 kPa, Gas | 0.01404
343.12 K, 496 kPa, Liquid | 0.06933
343.14 K, 26056 kPa, Liquid | 0.08389
343.17 K, 65460 kPa, Liquid | 0.09977
343.19 K, 19024 kPa, Liquid | 0.08036
343.2 K, 178 kPa, Gas | 0.01442
343.22 K, 357 kPa, Gas | 0.01443
343.23 K, 53929 kPa, Liquid | 0.09614
343.27 K, 113 kPa, Gas | 0.01431
343.3 K, 370 kPa, Gas | 0.01421
343.34 K, 43755 kPa, Liquid | 0.09204
343.35 K, 117 kPa, Gas | 0.01424
343.35 K, 12789 kPa, Liquid | 0.07705
